Experimental data as given in patent publication EP1020531A2, “Use of spore adhesion assays in fungicide screening” (priority 1999, dated 2000).
In brackets after ≈: the same amount, converted by molar mass.

Assays:
[1] = system: Pyricularia oryzae appressoria; details: Inoue et al., Pesticide Science 19, 145-152 (1987); cited from earlier work
Botrytis cinerea spores [2] = test: microbe, parasite or virus in culture; type: cell-based; details: 5.5 h; for EC50: Botrytis cinerea, read-out: Inhn. of Spore Adhesion (EC50, ppm) Chamber Slides
Botrytis cinerea spores [3] = test: Spore adhesion assay in polystyrene counting vials (Coulter Counter); type: cell-based; details: 25°C, 5.5 h; for EC50: Botrytis cinerea, read-out: Inhn. of Spore Adhesion (EC50, ppm) Counting vials
Procedure: (§1) Botrytis cinerea was grown at room temperature under fluorescent lights on potato dextrose agar (PDA), and subcultured every 14 days. To prepare spore suspensions, 20 ml sterile milliQ™ water was added to plates (10-14 days old) and the surface scraped gently with a sterile loop. The fluid was filtered through glass wool to remove mycelial fragments, then the spore density was adjusted to the desired concentration.
Various fungicides were evaluated for their abilities to inhibit germination-associated spore adhesion to polystyrene counting vials, polymethylpentene (Permanox®) chamber slides and 96-well flat-bottomed polystyrene microtiter plates, and for their effects on spore germination and mycelial growth (table below). Adhesion assays in chamber slides and germination assays were performed as in Example 1 with incubation at 25°C for 5.5 h. Adhesion assays in counting vials were conducted in 20 ml capacity polystyrene counting vials (VWR cat. no. 14310-640). Counting vials received 5 µl of DMSO (controls) or test compound dissolved in DMSO, followed by 500 µl of SDB. Aqueous spore suspension (500 µl) at 200,000 spores/ml was added, mixed gently and the vials or slides incubated at 25°C for 5.5 h. To determine the numbers of unbound spores 15 ml of counting fluid was added, vials were capped and inverted gently 5 times, then counted using a Coulter Counter®.

Botrytis = test: Mycelial growth inhibition, poison agar assay; details: for EC50: Botrytis, 72 h, read-out: Mycelial Growth Inhn. EC50 (ppm)
Procedure: Inhibition of mycelial growth was evaluated in poison agar assays. A 4-fold dilution series of each fungicide to be tested was prepared in DMSO and 125 µl of each dilution was added to 25 ml of molten malt extract agar (20 g malt extract, 20 g glucose, 1 g peptone and 20 g agar per liter). The medium containing test compound was poured immediately into 9 cm diameter petri dishes. Two replicate plates were used for each treatment. Each plate was inoculated with a 7 mm diameter plug taken from the growing edge of a Botrytis culture on PDA. Colony diameters were measured after growth for 3 days in the dark at 25°C. EC50 values were determined from dose-response curves.

Botrytis cinerea spores [4] = test: Spore germination assay (microscopic examination); type: cell-based; details: 25°C, 5.5 h; for EC50: Botrytis cinerea, read-out: Inhn. of Germination EC50 (ppm)
Botrytis cinerea spores [5] = test: Spore adhesion assay in 96-well polystyrene microtiter plates (sulforhodamine B); type: cell-based; details: 25°C, 5.5 hours; for EC50: Botrytis cinerea, read-out: Inhn. of Spore Adhesion (EC50, ppm) Microtiter plates
Procedure: as §1
(§2) For adhesion assays in microtiter plates, stock solutions of test compounds were prepared in DMSO then diluted in SDB such that the DMSO concentration after dilution was ≤2%. Two-fold serial dilutions of these test compound solutions were made in SDB (100 µl) in 96-well flat-bottomed microtiter plates. Spore suspension (100 µl at 2X10^5 spores/ml) was added to the wells, and the plates were incubated at 25°C for 5.5 hours. The medium containing unbound spores was removed by inverting and flicking the microtiter plate to remove as much liquid as possible.

[6] = system: Aspergillus nidulans spores; test: Spore adhesion assay in 96-well polystyrene microtiter plates; type: cell-based; details: statement in words
Procedure: as §2
Various fungicides were evaluated for their abilities to inhibit spore adhesion in 96-well flat-bottomed polystyrene microtiter plates. Adhesion assays were conducted as outlined in Example 2 for Botrytis except that the spore inoculum was prepared at 2X10^6 spores/ml, and plates were incubated at 37°C for 8 h.

[7] = system: Colletotrichum lagenarium spores; test: as above; type: cell-based; details: for Inhn. of Adhesion (EC50, ppm) Microtiter plates: SDB with Tween 20 (40 ppm), 8 h
Procedure: as §2
Colletotrichum lagenarium was grown at 25°C in the dark on potato dextrose agar and subcultured every 7-14 days. To prepare spore suspensions, 15 ml sterile water was added to plates (7-10 days old) and the plates agitated gently on a gyrotary shaker for 10 min to release spores. The resulting spore suspension was filtered through glass wool and adjusted to the desired concentration. Spore adhesion assays and germination assays were conducted as outlined in Example 1 for Botrytis except that the SDB medium contained Tween™ 20 (40 ppm), and the spore inoculum was prepared at 5X10^5 spores/ml. Data in the table below show a time-dependent adhesion of spores to the slide which closely parallels the time-course for spore germination.
Various fungicides were evaluated for their abilities to inhibit spore adhesion in 96-well flat-bottomed polystyrene microtiter plates and Permanox® chamber slides, and for their effects on spore germination and mycelial growth. Assays were conducted as outlined in Example 2 for Botrytis except that the SDB medium contained Tween™ 20 (40 ppm), the spore inoculum was prepared at 5X10^5 spores/ml, and 8 h incubation was used for the adhesion and germination assays. For each compound tested, EC50 values for inhibition of adhesion to microtiter plates and chamber slides were similar. Spore adhesion was sensitive to all compounds which inhibited germination at low concentrations (<0.2 ppm).

Puccinia recondita = test: Germination-associated spore adhesion assay in microtiter plates (sulforhodamine B); type: cell-based; details: for EC50 (ppm): inhibition of adhesion, 0.05% Tween 20, 19°C, 4 hours; for inhibition of germination-associated adhesion: statement in words
[8] = system: Colletotrichum lagenarium spores; test: Spore germination assay; type: cell-based; details: for Germination EC50 (ppm): 8 h
Magnaporthe grisea = type: cell-based; details: for EC50 (ppm): inhibition of adhesion, YEG, 25°C, 6 hours; for inhibition of germination-associated adhesion: statement in words
[9] = system: Colletotrichum lagenarium spores; type: cell-based; details: SDB with Tween 20 (40 ppm), 8 h
[10] = system: Colletotrichum lagenarium; test: Mycelial growth inhibition, poison agar assay; type: cell-based
Candida albicans = details: dacron fibers; Vuddhakel et al. (1988); cited from earlier work

## Cc1cccc2sc3nncn3c12 [tricyclazole]
[1]
  adhesion of Pyricularia oryzae appressoria to barley leaves: inhibited adhesion

## O=C1c2ccccc2C(=O)N1SC(Cl)(Cl)Cl [Folpet]
Botrytis cinerea spores [2]
  EC50: 0.22 mg/L (≈ 0.742 µM)
Botrytis cinerea spores [3]
  EC50: 0.21 mg/L (≈ 0.708 µM)
Botrytis
  EC50: 5.5 mg/L (≈ 18.5 µM)
Botrytis cinerea spores [4]
  EC50: 0.15 mg/L (≈ 0.506 µM)
Botrytis cinerea spores [5]
  EC50: 0.33 mg/L (≈ 1.11 µM)

## N#Cc1c(Cl)c(Cl)c(Cl)c(C#N)c1Cl [Chlorothalonil]
Botrytis cinerea spores [2]
  EC50: 0.089 mg/L (≈ 0.335 µM)
[6]
  inhibition of spore adhesion: highly potent inhibitors of spore adhesion
Botrytis cinerea spores [3]
  EC50: 0.093 mg/L (≈ 0.35 µM)
Botrytis
  EC50: 0.35 mg/L (≈ 1.32 µM)
[7]
  Inhn. of Adhesion (EC50, ppm) Microtiter plates: 0.068 ppm
Puccinia recondita
  EC50 (ppm): 0.473 ppm
  inhibition of germination-associated adhesion: inhibited germination-associated adhesion
[8]; SDB with Tween 20 (40 ppm)
  Germination EC50 (ppm): 0.005 ppm
Magnaporthe grisea
  EC50 (ppm): 0.038 ppm
  inhibition of germination-associated adhesion: potent inhibitors of germination-associated adhesion
[9]
  Inhn. of Adhesion (EC50, ppm) Chamber slides: 0.104 ppm
Botrytis cinerea spores [4]
  EC50: 0.067 mg/L (≈ 0.252 µM)
Botrytis cinerea spores [5]
  EC50: 0.1 mg/L (≈ 0.376 µM)
[10]
  Mycelial Growth Inhn. EC50 (ppm): 7.10 ppm

## Cc1nc(C(F)(F)F)c(C(=O)Nc2c(Br)cc(OC(F)(F)F)cc2Br)s1 [thifluzamide]
Puccinia recondita
  EC50 (ppm): 0.043 ppm
  inhibition of germination-associated adhesion: inhibited germination-associated adhesion

## COC(=O)Nc1nc2ccccc2[nH]1 [Carbendazim]
Botrytis
  EC50: 0.045 mg/L (≈ 0.235 µM)
[7]
  Inhn. of Adhesion (EC50, ppm) Microtiter plates: 1.96 ppm
[7]; statement in words on adhesion to microtiter plates and chamber slides
  activity in the spore adhesion assay: little or no activity
[8]; SDB with Tween 20 (40 ppm)
  Germination EC50 (ppm): >10 ppm
[8]; statement in words
  inhibition of germination: did not inhibit germination
[9]
  Inhn. of Adhesion (EC50, ppm) Chamber slides: >10 ppm
Botrytis cinerea spores [4]
  EC50: > 25 mg/L
Botrytis cinerea spores [5]
  EC50: > 10 mg/L
[10]
  Mycelial Growth Inhn. EC50 (ppm): 0.060 ppm

## Cc1cc(C)nc(Nc2ccccc2)n1 [Pyrimethanil]
Botrytis cinerea spores [2]
  EC50: > 25 mg/L
Botrytis cinerea spores [3]
  EC50: > 25 mg/L
Botrytis
  EC50: 0.48 mg/L (≈ 2.41 µM)
Botrytis cinerea spores [4]
  EC50: 8.6 mg/L (≈ 43.2 µM)
Botrytis cinerea spores [5]
  EC50: > 10 mg/L

## N#Cc1c[nH]cc1-c1cccc(Cl)c1Cl [Fenpiclonil]
Botrytis cinerea spores [2]
  EC50: 1.89 mg/L (≈ 7.97 µM)
Botrytis cinerea spores [3]
  EC50: 0.096 mg/L (≈ 0.405 µM)
Botrytis
  EC50: 0.0015 mg/L (≈ 0.00633 µM)
Botrytis cinerea spores [4]
  EC50: < 0.0312 mg/L
Botrytis cinerea spores [5]
  EC50: 0.09 mg/L (≈ 0.38 µM)

## CC1=C(C(=O)Nc2ccccc2)SCCO1 [carboxin]
Puccinia recondita
  EC50 (ppm): 0.081 ppm
  inhibition of germination-associated adhesion: inhibited germination-associated adhesion

## COC(=O)NC(=S)Nc1ccccc1NC(=S)NC(=O)OC [thiophanate-methyl]
Magnaporthe grisea
  EC50 (ppm): 7.5 ppm
  inhibition of germination-associated adhesion: little or no activity

## O=[N+]([O-])c1cc(C(F)(F)F)c(Cl)c([N+](=O)[O-])c1Nc1ncc(C(F)(F)F)cc1Cl [Fluazinam]
Botrytis cinerea spores [2]
  EC50: 0.071 mg/L (≈ 0.153 µM)
[6]
  inhibition of spore adhesion: highly potent inhibitors of spore adhesion
Botrytis cinerea spores [3]
  EC50: 0.041 mg/L (≈ 0.0882 µM)
Botrytis
  EC50: 0.033 mg/L (≈ 0.071 µM)
[7]
  Inhn. of Adhesion (EC50, ppm) Microtiter plates: <0.019 ppm
Puccinia recondita
  EC50 (ppm): 0.365 ppm
  inhibition of germination-associated adhesion: inhibited germination-associated adhesion
[8]; SDB with Tween 20 (40 ppm)
  Germination EC50 (ppm): 0.004 ppm
[9]
  Inhn. of Adhesion (EC50, ppm) Chamber slides: 0.007 ppm
Botrytis cinerea spores [4]
  EC50: 0.028 mg/L (≈ 0.0602 µM)
Botrytis cinerea spores [5]
  EC50: 0.051 mg/L (≈ 0.11 µM)
[10]
  Mycelial Growth Inhn. EC50 (ppm): 0.017 ppm

## CCC(C)(C)c1ccc(CC(C)CN2C[C@@H](C)O[C@@H](C)C2)cc1 (stereo partly drawn) [amorolfine]
Candida albicans
  Candida adherence: inhibit Candida adherence

## CCCCC(C#N)(Cn1cncn1)c1ccc(Cl)cc1 (stereo not drawn) [myclobutanil]
Puccinia recondita
  EC50 (ppm): >10 ppm
  inhibition of germination-associated adhesion: little or no activity

## C=CC1(C)OC(=O)N(c2cc(Cl)cc(Cl)c2)C1=O (stereo not drawn) [Vinclozolin]
Botrytis cinerea spores [2]
  EC50: > 5 mg/L
Botrytis cinerea spores [3]
  EC50: 0.56 mg/L (≈ 1.96 µM)
Botrytis
  EC50: 0.11 mg/L (≈ 0.384 µM)
Botrytis cinerea spores [4]
  EC50: < 0.5 mg/L
Botrytis cinerea spores [5]
  EC50: 0.62 mg/L (≈ 2.17 µM)

## CN(C)C(=S)SSC(=S)N(C)C [Thiram]
Botrytis cinerea spores [2]
  EC50: 1.87 mg/L (≈ 7.78 µM)
Botrytis cinerea spores [3]
  EC50: 1.04 mg/L (≈ 4.33 µM)
Botrytis
  EC50: 0.78 mg/L (≈ 3.24 µM)
Botrytis cinerea spores [4]
  EC50: < 0.625 mg/L
Botrytis cinerea spores [5]
  EC50: 1.86 mg/L (≈ 7.74 µM)

## CCCN(CCOc1c(Cl)cc(Cl)cc1Cl)C(=O)n1ccnc1 [prochloraz]
Magnaporthe grisea
  EC50 (ppm): >10.0 ppm
  inhibition of germination-associated adhesion: little or no activity

## Cn1c(=O)sc2cccc(Cl)c21 [chlobenthiazone]
[1]
  adhesion of Pyricularia oryzae appressoria to barley leaves: inhibited adhesion

## mancozeb
Puccinia recondita
  EC50 (ppm): 0.56 ppm
  inhibition of germination-associated adhesion: inhibited germination-associated adhesion
Magnaporthe grisea
  EC50 (ppm): 0.115 ppm
  inhibition of germination-associated adhesion: potent inhibitors of germination-associated adhesion

## N#CC(CCc1ccc(Cl)cc1)(Cn1cncn1)c1ccccc1 (stereo not drawn) [fenbuconazole]
Puccinia recondita
  EC50 (ppm): 9.2 ppm
  inhibition of germination-associated adhesion: little or no activity

## CO/C=C(/C(=O)OC)c1ccccc1Oc1cc(Oc2ccccc2C#N)ncn1 [Azoxystrobin]
Botrytis cinerea spores [2]; Permanox chamber slides, 25°C
  Inhn. of Spore Adhesion (EC50, ppm) Chamber Slides: 0.28 ppm
Botrytis cinerea spores [3]
  Inhn. of Spore Adhesion (EC50, ppm) Counting vials: 0.19 ppm
Botrytis; malt extract agar, 3 days, 25°C
  Mycelial Growth Inhn. EC50 (ppm): 3.05 ppm
[7]
  Inhn. of Adhesion (EC50, ppm) Microtiter plates: 0.027 ppm
[8]; 40 ppm
  Germination EC50 (ppm): 0.010 ppm
Magnaporthe grisea
  EC50 (ppm): 0.064 ppm
  inhibition of germination-associated adhesion: potent inhibitors of germination-associated adhesion
[9]
  Inhn. of Adhesion (EC50, ppm) Chamber slides: 0.014 ppm
Botrytis cinerea spores [4]
  Inhn. of Germination EC50 (ppm): 0.32 ppm
Botrytis cinerea spores [5]
  Inhn. of Spore Adhesion (EC50, ppm) Microtiter plates: 0.19 ppm
[10]
  Mycelial Growth Inhn. EC50 (ppm): >10 ppm
